From ChEMBL document CHEMBL3352479, “Discovery and SAR study of 2-(4-pyridylamino)thieno[3,2-d]pyrimidin-4(3H)-ones as soluble and highly potent PDE7 inhibitors” (Bioorg Med Chem Lett, 2015)
In brackets after ≈: the same amount, converted by molar mass.

Columns and labels:
[1] = molecular target: High affinity 3',5'-cyclic-AMP phosphodiesterase 7A (Homo sapiens, UniProt Q13946); assay: Inhibition of PDE7A (unknown origin)
[2] = Solubility in phosphate buffer at pH 6.8; assay type: physicochemical
[3] = molecular target: 3',5'-cyclic-AMP phosphodiesterase 4B (Homo sapiens, UniProt Q07343); assay: Inhibition of PDE4B (unknown origin)
Lymphocyte = assay: Inhibition of IL2 production from mouse activated lymphocytes; assay type: functional, cell-based
[4] = molecular target: cGMP-specific 3',5'-cyclic phosphodiesterase (Homo sapiens, UniProt O76074); assay: Inhibition of PDE5A (unknown origin)
[5] = molecular target: cGMP-inhibited 3',5'-cyclic phosphodiesterase 3A (Homo sapiens, UniProt Q14432); assay: Inhibition of PDE3A (unknown origin)
cGMP-inhibited 3',5'-cyclic phosphodiesterase 3A, sequence (Q14432 whole entry): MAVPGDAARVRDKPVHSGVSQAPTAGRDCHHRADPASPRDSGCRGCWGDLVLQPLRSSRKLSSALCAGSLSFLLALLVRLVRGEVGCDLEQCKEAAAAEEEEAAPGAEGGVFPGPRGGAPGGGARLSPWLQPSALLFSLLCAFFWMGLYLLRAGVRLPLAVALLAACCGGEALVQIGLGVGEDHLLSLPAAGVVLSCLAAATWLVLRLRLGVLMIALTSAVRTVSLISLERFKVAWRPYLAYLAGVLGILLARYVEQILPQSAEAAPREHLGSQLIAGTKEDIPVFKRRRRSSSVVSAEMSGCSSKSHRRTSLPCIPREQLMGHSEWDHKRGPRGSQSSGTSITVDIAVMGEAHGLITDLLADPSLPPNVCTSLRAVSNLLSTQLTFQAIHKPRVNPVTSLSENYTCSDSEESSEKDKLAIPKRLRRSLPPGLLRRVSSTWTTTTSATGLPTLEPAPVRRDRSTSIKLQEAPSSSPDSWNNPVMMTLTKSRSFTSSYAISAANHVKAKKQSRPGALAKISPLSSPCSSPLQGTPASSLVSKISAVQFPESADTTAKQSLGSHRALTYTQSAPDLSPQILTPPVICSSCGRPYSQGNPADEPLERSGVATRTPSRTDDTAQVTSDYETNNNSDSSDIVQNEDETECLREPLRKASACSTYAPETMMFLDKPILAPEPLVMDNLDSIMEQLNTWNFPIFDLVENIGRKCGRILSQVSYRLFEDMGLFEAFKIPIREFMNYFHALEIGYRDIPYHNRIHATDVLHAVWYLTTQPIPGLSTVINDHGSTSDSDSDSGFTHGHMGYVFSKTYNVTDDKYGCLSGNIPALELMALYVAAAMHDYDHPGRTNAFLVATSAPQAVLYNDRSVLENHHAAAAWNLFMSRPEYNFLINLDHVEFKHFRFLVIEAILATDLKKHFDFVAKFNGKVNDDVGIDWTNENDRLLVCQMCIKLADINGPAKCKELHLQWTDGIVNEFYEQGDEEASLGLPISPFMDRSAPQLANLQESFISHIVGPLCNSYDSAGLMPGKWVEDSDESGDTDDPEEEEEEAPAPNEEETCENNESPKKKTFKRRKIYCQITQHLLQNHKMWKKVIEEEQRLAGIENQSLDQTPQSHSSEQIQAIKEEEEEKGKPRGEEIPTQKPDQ

High affinity 3',5'-cyclic-AMP phosphodiesterase 7A, sequence (Q13946 whole entry): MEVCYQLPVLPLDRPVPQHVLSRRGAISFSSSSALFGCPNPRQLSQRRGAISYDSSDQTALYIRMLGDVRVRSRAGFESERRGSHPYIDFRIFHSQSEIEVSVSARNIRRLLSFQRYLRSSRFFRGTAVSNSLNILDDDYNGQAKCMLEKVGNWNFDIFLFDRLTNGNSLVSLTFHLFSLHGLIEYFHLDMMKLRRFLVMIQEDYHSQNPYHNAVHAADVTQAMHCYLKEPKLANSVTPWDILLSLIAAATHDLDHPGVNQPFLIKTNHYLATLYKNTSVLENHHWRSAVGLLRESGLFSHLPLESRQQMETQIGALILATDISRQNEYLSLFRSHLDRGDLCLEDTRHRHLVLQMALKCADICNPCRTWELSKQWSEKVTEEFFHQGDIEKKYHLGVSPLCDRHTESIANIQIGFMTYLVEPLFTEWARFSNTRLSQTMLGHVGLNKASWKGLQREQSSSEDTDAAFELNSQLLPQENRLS
3',5'-cyclic-AMP phosphodiesterase 4B, sequence (Q07343 whole entry): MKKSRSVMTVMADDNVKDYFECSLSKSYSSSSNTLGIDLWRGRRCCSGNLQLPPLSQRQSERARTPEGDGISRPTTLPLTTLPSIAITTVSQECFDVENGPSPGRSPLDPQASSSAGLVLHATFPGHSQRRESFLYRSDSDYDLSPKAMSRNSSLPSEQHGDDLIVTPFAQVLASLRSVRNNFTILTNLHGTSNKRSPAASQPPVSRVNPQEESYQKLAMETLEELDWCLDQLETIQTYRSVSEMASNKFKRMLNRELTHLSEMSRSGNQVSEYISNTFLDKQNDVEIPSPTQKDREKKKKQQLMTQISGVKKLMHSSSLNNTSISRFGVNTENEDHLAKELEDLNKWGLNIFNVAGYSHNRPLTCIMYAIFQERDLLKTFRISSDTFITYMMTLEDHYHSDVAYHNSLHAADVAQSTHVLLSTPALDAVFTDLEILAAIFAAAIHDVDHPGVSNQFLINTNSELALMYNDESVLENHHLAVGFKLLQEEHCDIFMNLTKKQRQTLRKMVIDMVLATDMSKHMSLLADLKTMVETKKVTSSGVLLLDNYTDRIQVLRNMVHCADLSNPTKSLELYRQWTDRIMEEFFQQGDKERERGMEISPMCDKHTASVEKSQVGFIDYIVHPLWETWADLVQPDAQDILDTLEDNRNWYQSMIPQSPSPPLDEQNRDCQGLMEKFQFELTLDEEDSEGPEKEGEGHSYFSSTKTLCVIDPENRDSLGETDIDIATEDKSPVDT

Row | IC50 [1] [µM] | solubility [2] [µg/mL] | IC50 [3] [µM] | IC50 (Lymphocyte) [µM] | IC50 [4] [µM] | IC50 [5] [µM] | Compound
1 | > 1 | 84 (≈ 294 µM) | – | – | – | – | CCn1c(Nc2ccc(C)cc2)nc2ccsc2c1=O
2 | 0.0021 | 17.9 (≈ 51.4 µM) | 0.056 | 0.26 | – | – | CCn1c(Nc2ccncc2F)nc2c(C(C)(C)O)csc2c1=O
3 | 0.025 | 3.5 (≈ 11.1 µM) | 0.67 | – | – | – | CCn1c(Nc2ccncc2F)nc2c(C#N)csc2c1=O
4 | 0.0039 | 31.3 (≈ 89.8 µM) | 0.18 | 0.48 | – | – | CCn1c(Nc2ccncc2F)nc2c(CCCO)csc2c1=O
5 | > 1 | 41.6 (≈ 153 µM) | – | – | – | – | CCn1c(Nc2cccnc2)nc2ccsc2c1=O
6 | 0.06 | 120 (≈ 413 µM) | 5.3 | – | – | – | CCn1c(Nc2ccncc2F)nc2ccsc2c1=O

Second part, the molecule before the results:

Row | Compound | IC50 [1] [µM] | solubility [2] [µg/mL] | IC50 [3] [µM] | IC50 (Lymphocyte) [µM] | IC50 [4] [µM] | IC50 [5] [µM]
7 | CCn1c(Nc2ccncc2)nc2ccsc2c1=O | 0.63 | 111 (≈ 408 µM) | 30 | – | – | –
8 | CCn1c(Nc2ccncc2F)nc2c(C3CCN(C(=O)OC)CC3)csc2c1=O | 0.0011 | 0.9 (≈ 2.09 µM) | 0.31 | – | – | –
9 | CCn1c(Nc2ccccc2)nc2ccsc2c1=O | 0.29 | 19.5 (≈ 71.9 µM) | 7.4 | – | – | –
10 | CCn1c(Nc2ccccc2C#N)nc2ccsc2c1=O | 2.3 | 0.4 (≈ 1.35 µM) | – | – | – | –
11 | CCn1c(Nc2ccncc2F)nc2c(C(C)O)csc2c1=O (stereo not given) | 0.0087 | 5.4 (≈ 16.1 µM) | 0.61 | 1.7 | – | –
12 | CCn1c(Nc2ccccc2Cl)nc2ccsc2c1=O | 0.041 | 6.3 (≈ 20.6 µM) | 3 | – | – | –
13 | CCn1c(Nc2ccncc2F)nc2c(C3CCCN(C(=O)OC)C3)csc2c1=O (stereo not given) | 0.00068 | 48.9 (≈ 113 µM) | 0.28 | 0.16 | 0.52 | 0.029
14 | CCn1c(Nc2ccncc2F)nc2c(C3CCCN(C(=O)C(C)(C)CO)C3)csc2c1=O (stereo not given) | 0.0012 | 22.7 (≈ 47.9 µM) | 0.18 | 0.13 | > 10 | 0.037
15 | CCn1c(Nc2cccc(C)c2)nc2ccsc2c1=O | > 1 | 65.5 (≈ 230 µM) | – | – | – | –
16 | CCc1ccccc1Nc1nc2ccsc2c(=O)n1CC | > 1 | 1.9 (≈ 6.35 µM) | – | – | – | –
17 | CCn1c(Nc2ccccc2F)nc2ccsc2c1=O | 0.061 | 26.1 (≈ 90.2 µM) | 2.7 | – | – | –
18 | CCn1c(Nc2ccncc2F)nc2c(C3CCCN(C(=O)C4(C#N)CC4)C3)csc2c1=O (stereo not given) | 0.00032 | 28.1 (≈ 60.2 µM) | 0.02 | < 0.1 | 2.9 | 0.017
19 | CCn1c(NC2CCCC2)nc2ccsc2c1=O | – | 12.1 (≈ 45.9 µM) | – | – | – | –
20 | CCn1c(Nc2ccccc2C)nc2ccsc2c1=O | 0.088 | 10.1 (≈ 35.4 µM) | 4.3 | – | – | –
